The target of series [1] is WT Pgp (codon-optimized mouse mdr1a Pgp) (Mus musculus, UniProt P21447). The series is described as follows: biochemical. How it is done:
(§1) The rate of ATP hydrolysis was measured at 37 °C, by an ATPase-linked enzyme assay, in the absence and presence of drugs, and statistical analysis were done as described[74],[79]. For biophysical studies, Pgp was exchanged into SEC buffer (20 mM HEPES pH 7.4, 150 mM NaCl, 10% glycerol, 0.05% DDM,) by size exclusion chromatography (SEC) on Superdex 200 (1 × 30 cm column)[85].

The target of series [2] is WL-Pgp (Trp-less Pgp, all eleven Trps substituted) (Mus musculus, UniProt P21447, W1104Y/W132L/W158Y/W208P/W228M/W311Y/W44H/W694I/W704I/W799Y/W851P). The series is described as follows: biochemical. The method, then:
as §1

For series [3], the target named is T1, W(3Cyto) Pgp (W44H/W132L/W208P/W228M/W311Y/W694I/W704I/W851P) (Mus musculus, UniProt P21447, W132L/W208P/W228M/W311Y/W44H/W694I/W704I/W851P). The series is described as follows: biochemical.
Description: (§2) The rate of ATP hydrolysis was measured at 37 °C, by an ATPase-linked enzyme assay[87], in the absence and presence of drugs, and statistical analysis were done as described[74],[79].
Series [4] deals with S. cerevisiae JPY201 expressing Pgp variants. The note with it: 30 µM doxorubicin. The method, then: Cultures of the transformants were screened again for mating efficiency. […] DNA from the 72 unique mutants was again re-transformed into JPY201 yeast cells for more detailed in vivo functional analysis of fungicidal drug resistance and yeast mating efficiency, which were performed essentially as previously described[74],[79],[84].

Series [5] addresses T1, W(3Cyto) Pgp (W44H/W132L/W208P/W228M/W311Y/W694I/W704I/W851P). The settings on record: read-out: Km(MgATP), in the presence of 30 μM verapamil.
Description: as §2
Where [6] appears, read: EC50 (concentration required for 50% stimulation of the ATPase activity), WT Pgp, mean ± SD.

SMILES strings stand for the structures. Like-named read-outs stand apart in the source and are kept apart here.

WT Pgp (codon-optimized mouse mdr1a Pgp), sequence (P21447 whole entry): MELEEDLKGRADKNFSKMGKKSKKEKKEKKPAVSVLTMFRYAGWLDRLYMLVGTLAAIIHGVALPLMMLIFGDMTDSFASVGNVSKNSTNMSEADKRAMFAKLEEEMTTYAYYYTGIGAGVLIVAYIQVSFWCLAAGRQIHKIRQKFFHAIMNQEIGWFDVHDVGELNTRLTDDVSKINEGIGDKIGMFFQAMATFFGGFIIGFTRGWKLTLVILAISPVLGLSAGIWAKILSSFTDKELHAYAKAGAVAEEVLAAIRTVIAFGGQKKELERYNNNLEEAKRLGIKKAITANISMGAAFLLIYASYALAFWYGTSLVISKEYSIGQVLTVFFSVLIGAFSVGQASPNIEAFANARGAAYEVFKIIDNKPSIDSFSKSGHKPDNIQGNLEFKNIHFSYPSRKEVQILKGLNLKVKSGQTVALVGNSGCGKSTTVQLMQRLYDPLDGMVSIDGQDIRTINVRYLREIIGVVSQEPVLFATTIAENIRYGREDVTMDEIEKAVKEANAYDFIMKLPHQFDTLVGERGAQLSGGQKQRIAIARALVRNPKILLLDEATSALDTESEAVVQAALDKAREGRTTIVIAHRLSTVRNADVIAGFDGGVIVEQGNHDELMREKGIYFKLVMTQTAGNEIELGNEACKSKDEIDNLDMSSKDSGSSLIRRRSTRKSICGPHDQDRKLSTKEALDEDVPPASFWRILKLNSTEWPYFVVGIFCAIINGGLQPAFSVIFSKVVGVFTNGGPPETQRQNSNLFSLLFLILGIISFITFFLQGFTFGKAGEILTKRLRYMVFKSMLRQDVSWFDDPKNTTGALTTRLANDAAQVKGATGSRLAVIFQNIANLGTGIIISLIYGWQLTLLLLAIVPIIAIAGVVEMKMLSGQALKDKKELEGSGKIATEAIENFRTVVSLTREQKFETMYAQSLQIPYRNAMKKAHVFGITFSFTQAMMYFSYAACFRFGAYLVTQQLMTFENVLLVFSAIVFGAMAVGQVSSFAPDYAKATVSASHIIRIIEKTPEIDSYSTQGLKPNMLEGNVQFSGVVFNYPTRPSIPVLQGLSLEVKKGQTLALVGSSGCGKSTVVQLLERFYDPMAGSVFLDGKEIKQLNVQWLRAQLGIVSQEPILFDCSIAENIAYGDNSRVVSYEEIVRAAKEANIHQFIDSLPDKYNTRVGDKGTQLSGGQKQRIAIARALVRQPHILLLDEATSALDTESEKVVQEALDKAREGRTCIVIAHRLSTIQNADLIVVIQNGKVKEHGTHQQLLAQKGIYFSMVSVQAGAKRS
WL-Pgp (Trp-less Pgp, all eleven Trps substituted), sequence (P21447 whole entry W44H/W132L/W158Y/W208P/W228M/W311Y/W694I/W704I/W799Y/W851P/W1104Y): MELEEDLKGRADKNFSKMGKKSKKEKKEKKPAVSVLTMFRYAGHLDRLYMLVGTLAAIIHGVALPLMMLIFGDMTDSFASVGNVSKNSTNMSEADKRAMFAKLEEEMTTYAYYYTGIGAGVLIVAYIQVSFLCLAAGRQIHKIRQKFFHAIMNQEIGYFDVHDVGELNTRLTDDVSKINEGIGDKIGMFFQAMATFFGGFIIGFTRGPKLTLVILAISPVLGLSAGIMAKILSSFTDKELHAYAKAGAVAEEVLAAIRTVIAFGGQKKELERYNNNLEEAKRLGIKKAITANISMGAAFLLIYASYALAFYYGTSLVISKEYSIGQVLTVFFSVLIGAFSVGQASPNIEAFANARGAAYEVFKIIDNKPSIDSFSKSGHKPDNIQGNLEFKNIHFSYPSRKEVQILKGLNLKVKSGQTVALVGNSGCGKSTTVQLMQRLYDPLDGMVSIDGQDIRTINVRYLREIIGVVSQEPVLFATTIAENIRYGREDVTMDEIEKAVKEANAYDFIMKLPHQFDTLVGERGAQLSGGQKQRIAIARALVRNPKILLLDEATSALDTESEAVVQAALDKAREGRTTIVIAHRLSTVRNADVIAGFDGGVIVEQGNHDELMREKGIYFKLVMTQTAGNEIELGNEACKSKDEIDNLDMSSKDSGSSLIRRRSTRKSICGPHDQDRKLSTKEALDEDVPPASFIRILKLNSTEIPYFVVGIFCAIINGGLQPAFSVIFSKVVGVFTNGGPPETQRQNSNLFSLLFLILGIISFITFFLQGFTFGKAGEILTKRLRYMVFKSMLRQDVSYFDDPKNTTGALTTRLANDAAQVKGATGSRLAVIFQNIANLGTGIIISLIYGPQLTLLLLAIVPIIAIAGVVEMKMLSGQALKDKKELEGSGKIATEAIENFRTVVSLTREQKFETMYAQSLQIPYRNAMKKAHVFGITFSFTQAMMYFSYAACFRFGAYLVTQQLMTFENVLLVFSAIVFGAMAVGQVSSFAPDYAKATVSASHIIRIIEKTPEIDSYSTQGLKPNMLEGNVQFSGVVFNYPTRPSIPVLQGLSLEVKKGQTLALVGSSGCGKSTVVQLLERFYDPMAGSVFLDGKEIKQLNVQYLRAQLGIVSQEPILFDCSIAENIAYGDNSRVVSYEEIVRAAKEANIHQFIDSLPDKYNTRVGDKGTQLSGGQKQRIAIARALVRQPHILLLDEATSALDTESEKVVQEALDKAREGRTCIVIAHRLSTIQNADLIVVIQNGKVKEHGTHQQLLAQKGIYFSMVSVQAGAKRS
T1 sequence (P21447 whole entry W44H/W132L/W208P/W228M/W311Y/W694I/W704I/W851P): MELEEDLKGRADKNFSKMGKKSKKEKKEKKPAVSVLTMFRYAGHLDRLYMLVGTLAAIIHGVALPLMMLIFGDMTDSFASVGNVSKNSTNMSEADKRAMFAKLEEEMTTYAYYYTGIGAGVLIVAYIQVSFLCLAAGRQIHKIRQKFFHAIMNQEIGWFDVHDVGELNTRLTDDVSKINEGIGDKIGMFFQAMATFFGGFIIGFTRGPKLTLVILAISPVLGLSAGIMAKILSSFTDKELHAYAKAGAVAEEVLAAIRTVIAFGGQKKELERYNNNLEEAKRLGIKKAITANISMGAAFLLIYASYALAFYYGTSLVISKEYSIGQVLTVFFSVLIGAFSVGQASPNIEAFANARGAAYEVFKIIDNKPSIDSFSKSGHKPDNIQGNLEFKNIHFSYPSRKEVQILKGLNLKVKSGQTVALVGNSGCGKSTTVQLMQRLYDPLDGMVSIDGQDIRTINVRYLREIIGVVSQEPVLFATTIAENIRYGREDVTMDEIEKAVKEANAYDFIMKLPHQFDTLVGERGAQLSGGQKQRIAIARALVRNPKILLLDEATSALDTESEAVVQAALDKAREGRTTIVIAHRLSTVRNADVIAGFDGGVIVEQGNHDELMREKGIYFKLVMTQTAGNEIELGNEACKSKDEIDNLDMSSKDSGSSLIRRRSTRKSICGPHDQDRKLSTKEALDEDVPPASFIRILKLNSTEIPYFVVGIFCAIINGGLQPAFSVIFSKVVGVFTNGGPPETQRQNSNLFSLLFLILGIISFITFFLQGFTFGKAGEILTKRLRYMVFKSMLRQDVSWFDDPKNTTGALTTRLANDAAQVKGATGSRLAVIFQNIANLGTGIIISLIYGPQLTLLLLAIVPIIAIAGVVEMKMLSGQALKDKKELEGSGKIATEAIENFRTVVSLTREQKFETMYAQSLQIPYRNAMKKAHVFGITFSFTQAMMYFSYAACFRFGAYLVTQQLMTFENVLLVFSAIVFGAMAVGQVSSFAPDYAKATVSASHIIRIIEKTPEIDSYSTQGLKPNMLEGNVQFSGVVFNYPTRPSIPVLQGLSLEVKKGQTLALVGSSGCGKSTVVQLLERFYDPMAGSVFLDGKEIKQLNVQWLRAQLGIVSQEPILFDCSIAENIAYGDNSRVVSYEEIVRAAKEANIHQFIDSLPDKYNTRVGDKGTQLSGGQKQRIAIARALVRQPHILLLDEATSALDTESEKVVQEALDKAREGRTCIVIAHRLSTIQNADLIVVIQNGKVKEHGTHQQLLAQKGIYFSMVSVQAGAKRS

For `CC(C)[C@@H]1NC(=O)[C@H](C)OC(=O)[C@@H](C(C)C)NC(=O)[C@@H](C(C)C)OC(=O)[C@H](C(C)C)NC(=O)[C@H](C)OC(=O)[C@@H](C(C)C)NC(=O)[C@@H](C(C)C)OC(=O)[C@H](C(C)C)NC(=O)[C@H](C)OC(=O)[C@@H](C(C)C)NC(=O)[C@@H](C(C)C)OC1=O` [Valinomycin, valinomycin], the EC50 in series [1] (50% stimulation (EC50) of ATPase function, text summary across Wt Pgp, W(3Cyto) and WL-Pgp) was about 0.3 µM; in series [1] (setting [6]) it was 0.33 ± 0.08 µM; in series [2], 0.34 ± 0.09 µM; in series [3], 0.23 ± 0.03 µM.
As to `COc1cccc2c1C(=O)c1c(O)c3c(c(O)c1C2=O)C[C@@](O)(C(=O)CO)C[C@@H]3O[C@H]1C[C@H](N)[C@H](O)[C@H](C)O1` [doxorubicin], the “Resistance to doxorubicin (relative to Wt Pgp)” value in series [4] (yeast expressing mutant B (W(3Cyto))) amounted to 52 ± 14%; in series [4] (yeast expressing mutant C (eight TMD Trps replaced)), 43 ± 13%.
On to `C=CC[C@@H]1/C=C(\C)C[C@H](C)C[C@H](OC)[C@H]2O[C@@](O)(C(=O)C(=O)N3CCCC[C@H]3C(=O)O[C@H](/C(C)=C/[C@@H]3CC[C@@H](O)[C@H](OC)C3)[C@H](C)[C@@H](O)CC1=O)[C@H](C)C[C@@H]2OC` [FK506], for which the EC50 is 0.084 ± 0.03 µM in series [1] (setting [6]), 0.16 ± 0.04 µM in series [2] and 0.14 ± 0.03 µM in series [3].
For the compound `Nc1ncnc2c1ncn2[C@@H]1O[C@H](COP(=O)(O)OP(=O)(O)OP(=O)(O)O)[C@@H](O)[C@H]1O` [MgATP], the Km in series [5] turned out to be 400 ± 70 µM; in series [1] (read-out: Km(MgATP), WT Pgp, in the presence of 30 μM verapamil, text says mM range) it was 0.75 ± 0.2 mM; in series [2] (read-out: Km(MgATP), WL-Pgp, in the presence of 30 μM verapamil, text says mM range), 0.65 ± 0.07 mM.

Source of the values: publication PMC7035247 (Scientific Reports, 2020).
